# Columns and labels:
# [1] = target: Serine/threonine-protein kinase MRCK alpha (Homo sapiens) (UniProt Q5VT25); assay: Inhibition of N-terminal GST-fused truncated human MRCKalpha (1 to 574 residues) expressed in baculovirus expression system using DAPK1tide as substrate at 1 uM in presence of ATP by Mobility shift assay
# [2] = target: 3-phosphoinositide-dependent protein kinase 1 (PDPK1) (Homo sapiens) (UniProt O15530); assay: Inhibition of N-terminal GST-fused full length human PDK1 (1 to 556 residues) expressed in baculovirus expression system using T308tide as substrate at 1 uM in presence of ATP by Mobility shift assay
# [3] = target: Aurora kinase A/Targeting protein for Xklp2 (Homo sapiens) (UniProt O14965+Q9ULW0); assay: Inhibition of N-terminal GST-fused full length human AurA (1 to 403 residues)/TPX2 expressed in baculovirus-infected Sf21 cells using Kemptide as substrate at 1 uM in presence of ATP by Mobility shift assay
# [4] = target: SRSF protein kinase 1 (Homo sapiens) (UniProt Q96SB4); assay: Inhibition of N-terminal GST-fused full length human SRPK1 (1 to 655 residues) expressed in Escherichia coli expression system using SRPKtide as substrate at 1 uM in presence of ATP by IMAP assay
# [5] = target: Calcium/calmodulin-dependent protein kinase type 1D (Homo sapiens) (UniProt Q8IU85); assay: Inhibition of N-terminal GST-tagged full length human CAMK1d (1 to 357 residues) expressed in baculovirus-infected Sf21 cells using Synapsin peptide as substrate at 1 uM in presence of ATP by Mobility shift assay
# [6] = target: MAP kinase-activated protein kinase 5 (Homo sapiens) (UniProt Q8IW41); assay: Inhibition of N-terminal GST-fused full length human MAPKAPK5 (1 to 471 residues) expressed in baculovirus expression system using GS peptide as substrate at 1 uM in presence of ATP by Mobility shift assay
# [7] = target: Serine/threonine-protein kinase Nek2 (Homo sapiens) (UniProt P51955); assay: Inhibition of N-terminal His-tagged full length human NEK2 (1 to 445 residues) expressed in baculovirus expression system using CDK7 peptide as substrate at 1 uM in presence of ATP by Mobility shift assay
# [8] = target: Serine/threonine-protein kinase LATS2 (Homo sapiens) (UniProt Q9NRM7); assay: Inhibition of N-terminal GST-fused human LATS2 catalytic domain (553 to 1088 residues) expressed in baculovirus expression system using SGKtide as substrate at 1 uM in presence of ATP by Mobility shift assay
# [9] = target: Serine/threonine-protein kinase WNK2 (Homo sapiens) (UniProt Q9Y3S1); assay: Inhibition of N-terminal GST-fused human WNK2 catalytic domain (166 to 489 residues) expressed in baculovirus expression system using SPAKtide as substrate at 1 uM in presence of ATP by Mobility shift assay
# [10] = target: Mitogen-activated protein kinase 8 (Homo sapiens) (UniProt P45983); assay: Inhibition of N-terminal GST-fused human JNK1 catalytic domain (2 to 364 residues) expressed in Escherichia coli expression system using Modified ERKtide as substrate at 1 uM in presence of ATP by Mobility shift assay
# [11] = target: Mitogen-activated protein kinase 3 (Homo sapiens) (UniProt P27361); assay: Inhibition of N-terminal GST-fused full length human ERK1 (1 to 379 residues) expressed in Escherichia coli expression system using Modified Erktide as substrate at 1 uM in presence of ATP by Mobility shift assay
# [12] = target: Calcium/calmodulin-dependent protein kinase type IV (Homo sapiens) (UniProt Q16566); assay: Inhibition of N-terminal GST-tagged full length human CAMK4 (1 to 473 residues) expressed in baculovirus-infected Sf21 cells using GS peptide as substrate at 1 uM in presence of ATP by Mobility shift assay
# [13] = target: Proto-oncogene tyrosine-protein kinase receptor Ret (Homo sapiens) (UniProt P07949); assay: Inhibition of N-terminal GST-tagged human RET cytoplasmic domain (658 to 1114 residues) expressed in baculovirus-infected Sf21 cells using CSKtide as substrate at 1 uM in presence of ATP by Mobility shift assay
# [14] = target: Homeodomain-interacting protein kinase 4 (Homo sapiens) (UniProt Q8NE63); assay: Inhibition of N-terminal GST-fused full length human HIPK4 (1 to 616 residues) expressed in baculovirus expression system using DYRKtide-F as substrate at 1 uM in presence of ATP by Mobility shift assay
# [15] = target: Calcium/calmodulin-dependent protein kinase type II subunit alpha (Homo sapiens) (UniProt Q9UQM7); assay: Inhibition of N-terminal GST-fused full length human CAMK2a (1 to 478 residues) expressed in baculovirus-infected Sf21 cells using GS peptide as substrate at 1 uM in presence of ATP by Mobility shift assay
# [16] = target: Serine/threonine-protein kinase PAK 1 (Homo sapiens) (UniProt Q13153); assay: Inhibition of N-terminal GST-fused full length human PAK1 (1 to 545 residues) expressed in baculovirus expression system using LIMKtide as substrate at 1 uM in presence of ATP by Mobility shift assay
# [17] = target: Vascular endothelial growth factor receptor 3 (Homo sapiens) (UniProt P35916); assay: Inhibition of N-terminal GST-fused human FLT4 cytoplasmic domain (798 to 1298 residues) expressed in baculovirus-infected Sf21 cells using CSKtide as substrate at 1 uM in presence of ATP by Mobility shift assay
# [18] = target: Protein kinase C epsilon type (Homo sapiens) (UniProt Q02156); assay: Inhibition of N-terminal GST-fused human full length PKC-epsilon (1 to 737 residues ) expressed in baculovirus expression system using PKC peptide as substrate at 1 uM in presence of ATP by Mobility shift assay
# [19] = target: Interferon-induced, double-stranded RNA-activated protein kinase (Homo sapiens) (UniProt P19525); assay: Inhibition of N-terminal GST-fused human PKR catalytic domain (252 to 551 residues) expressed in baculovirus expression system using SRPKtide as substrate at 1 uM in presence of ATP by IMAP
# [20] = target: Homeodomain-interacting protein kinase 1 (Homo sapiens) (UniProt Q86Z02); assay: Inhibition of N-terminal GST-fused human HIPK1 catalytic domain (158 to 555 residues) expressed in baculovirus expression system using DYRKtide-F as substrate at 1 uM in presence of ATP by Mobility shift assay
# [21] = target: Testis-specific serine/threonine-protein kinase 2 (Homo sapiens) (UniProt Q96PF2); assay: Inhibition of N-terminal GST-fused full length human TSSK2 (1 to 358 residues) expressed in baculovirus expression system using GS peptide as substrate at 1 uM in presence of ATP by Mobility shift assay
# [22] = target: Ribosomal protein S6 kinase alpha-6 (Homo sapiens) (UniProt Q9UK32); assay: Inhibition of N-terminal GST-fused human full length RSK4 (1 to 745 residues) expressed in baculovirus expression system using S6K peptide(N-FL) as substrate at 1 uM in presence of ATP by Mobility shift assay
# Ribosomal protein S6 kinase alpha-6 (Homo sapiens), sequence (Q9UK32 whole entry, the tested form may be a part): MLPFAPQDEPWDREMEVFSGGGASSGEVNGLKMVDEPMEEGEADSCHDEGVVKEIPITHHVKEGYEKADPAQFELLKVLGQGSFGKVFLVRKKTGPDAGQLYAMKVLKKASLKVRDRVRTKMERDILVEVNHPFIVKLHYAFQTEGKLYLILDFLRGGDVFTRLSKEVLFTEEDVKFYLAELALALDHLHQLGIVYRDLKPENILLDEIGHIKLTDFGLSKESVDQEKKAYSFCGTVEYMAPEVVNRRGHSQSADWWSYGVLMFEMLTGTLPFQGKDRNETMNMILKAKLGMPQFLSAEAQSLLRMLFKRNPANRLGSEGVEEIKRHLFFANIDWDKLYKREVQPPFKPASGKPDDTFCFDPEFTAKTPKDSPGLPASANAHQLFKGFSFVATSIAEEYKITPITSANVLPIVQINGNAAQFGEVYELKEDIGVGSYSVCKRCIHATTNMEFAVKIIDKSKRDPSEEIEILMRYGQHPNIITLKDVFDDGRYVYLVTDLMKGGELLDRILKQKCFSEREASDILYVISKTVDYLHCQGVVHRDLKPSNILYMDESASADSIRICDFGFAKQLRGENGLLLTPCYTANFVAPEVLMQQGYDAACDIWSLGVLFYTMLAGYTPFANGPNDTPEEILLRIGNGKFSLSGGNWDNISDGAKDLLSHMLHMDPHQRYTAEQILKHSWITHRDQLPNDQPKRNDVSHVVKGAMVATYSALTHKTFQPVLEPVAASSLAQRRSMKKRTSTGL
# Testis-specific serine/threonine-protein kinase 2 (Homo sapiens), sequence (Q96PF2 whole entry, the tested form may be a part): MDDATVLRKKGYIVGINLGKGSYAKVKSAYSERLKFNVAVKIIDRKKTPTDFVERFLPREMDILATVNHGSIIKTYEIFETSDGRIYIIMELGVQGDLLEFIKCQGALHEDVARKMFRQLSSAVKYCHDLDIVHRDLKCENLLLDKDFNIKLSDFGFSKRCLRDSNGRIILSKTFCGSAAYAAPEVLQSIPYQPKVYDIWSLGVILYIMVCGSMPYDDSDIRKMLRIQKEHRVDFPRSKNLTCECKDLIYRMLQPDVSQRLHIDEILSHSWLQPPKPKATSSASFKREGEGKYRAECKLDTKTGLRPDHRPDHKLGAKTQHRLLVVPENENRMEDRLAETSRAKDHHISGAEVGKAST
# Protein kinase C epsilon type (Homo sapiens), sequence (Q02156 whole entry, the tested form may be a part): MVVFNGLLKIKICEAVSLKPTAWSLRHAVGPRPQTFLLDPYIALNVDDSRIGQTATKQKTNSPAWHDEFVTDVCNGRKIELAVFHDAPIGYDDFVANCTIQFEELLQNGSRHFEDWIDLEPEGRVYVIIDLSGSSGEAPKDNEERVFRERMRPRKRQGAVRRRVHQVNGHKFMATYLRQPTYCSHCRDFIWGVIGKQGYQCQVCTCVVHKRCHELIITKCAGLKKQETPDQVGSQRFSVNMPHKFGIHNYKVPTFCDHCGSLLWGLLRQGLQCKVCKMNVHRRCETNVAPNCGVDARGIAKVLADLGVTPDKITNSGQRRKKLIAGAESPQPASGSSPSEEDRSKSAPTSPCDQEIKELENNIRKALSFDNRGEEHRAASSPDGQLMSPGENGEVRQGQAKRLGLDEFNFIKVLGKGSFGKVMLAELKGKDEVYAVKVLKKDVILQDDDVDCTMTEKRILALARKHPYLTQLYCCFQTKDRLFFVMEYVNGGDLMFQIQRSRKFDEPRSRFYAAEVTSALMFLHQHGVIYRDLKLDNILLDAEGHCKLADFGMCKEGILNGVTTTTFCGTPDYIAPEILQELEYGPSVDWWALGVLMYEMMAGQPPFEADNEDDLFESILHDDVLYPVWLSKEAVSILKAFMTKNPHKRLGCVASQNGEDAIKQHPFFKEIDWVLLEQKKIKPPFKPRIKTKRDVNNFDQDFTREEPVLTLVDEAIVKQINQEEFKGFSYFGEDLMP
# Serine/threonine-protein kinase MRCK alpha (Homo sapiens), sequence (Q5VT25 whole entry, the tested form may be a part): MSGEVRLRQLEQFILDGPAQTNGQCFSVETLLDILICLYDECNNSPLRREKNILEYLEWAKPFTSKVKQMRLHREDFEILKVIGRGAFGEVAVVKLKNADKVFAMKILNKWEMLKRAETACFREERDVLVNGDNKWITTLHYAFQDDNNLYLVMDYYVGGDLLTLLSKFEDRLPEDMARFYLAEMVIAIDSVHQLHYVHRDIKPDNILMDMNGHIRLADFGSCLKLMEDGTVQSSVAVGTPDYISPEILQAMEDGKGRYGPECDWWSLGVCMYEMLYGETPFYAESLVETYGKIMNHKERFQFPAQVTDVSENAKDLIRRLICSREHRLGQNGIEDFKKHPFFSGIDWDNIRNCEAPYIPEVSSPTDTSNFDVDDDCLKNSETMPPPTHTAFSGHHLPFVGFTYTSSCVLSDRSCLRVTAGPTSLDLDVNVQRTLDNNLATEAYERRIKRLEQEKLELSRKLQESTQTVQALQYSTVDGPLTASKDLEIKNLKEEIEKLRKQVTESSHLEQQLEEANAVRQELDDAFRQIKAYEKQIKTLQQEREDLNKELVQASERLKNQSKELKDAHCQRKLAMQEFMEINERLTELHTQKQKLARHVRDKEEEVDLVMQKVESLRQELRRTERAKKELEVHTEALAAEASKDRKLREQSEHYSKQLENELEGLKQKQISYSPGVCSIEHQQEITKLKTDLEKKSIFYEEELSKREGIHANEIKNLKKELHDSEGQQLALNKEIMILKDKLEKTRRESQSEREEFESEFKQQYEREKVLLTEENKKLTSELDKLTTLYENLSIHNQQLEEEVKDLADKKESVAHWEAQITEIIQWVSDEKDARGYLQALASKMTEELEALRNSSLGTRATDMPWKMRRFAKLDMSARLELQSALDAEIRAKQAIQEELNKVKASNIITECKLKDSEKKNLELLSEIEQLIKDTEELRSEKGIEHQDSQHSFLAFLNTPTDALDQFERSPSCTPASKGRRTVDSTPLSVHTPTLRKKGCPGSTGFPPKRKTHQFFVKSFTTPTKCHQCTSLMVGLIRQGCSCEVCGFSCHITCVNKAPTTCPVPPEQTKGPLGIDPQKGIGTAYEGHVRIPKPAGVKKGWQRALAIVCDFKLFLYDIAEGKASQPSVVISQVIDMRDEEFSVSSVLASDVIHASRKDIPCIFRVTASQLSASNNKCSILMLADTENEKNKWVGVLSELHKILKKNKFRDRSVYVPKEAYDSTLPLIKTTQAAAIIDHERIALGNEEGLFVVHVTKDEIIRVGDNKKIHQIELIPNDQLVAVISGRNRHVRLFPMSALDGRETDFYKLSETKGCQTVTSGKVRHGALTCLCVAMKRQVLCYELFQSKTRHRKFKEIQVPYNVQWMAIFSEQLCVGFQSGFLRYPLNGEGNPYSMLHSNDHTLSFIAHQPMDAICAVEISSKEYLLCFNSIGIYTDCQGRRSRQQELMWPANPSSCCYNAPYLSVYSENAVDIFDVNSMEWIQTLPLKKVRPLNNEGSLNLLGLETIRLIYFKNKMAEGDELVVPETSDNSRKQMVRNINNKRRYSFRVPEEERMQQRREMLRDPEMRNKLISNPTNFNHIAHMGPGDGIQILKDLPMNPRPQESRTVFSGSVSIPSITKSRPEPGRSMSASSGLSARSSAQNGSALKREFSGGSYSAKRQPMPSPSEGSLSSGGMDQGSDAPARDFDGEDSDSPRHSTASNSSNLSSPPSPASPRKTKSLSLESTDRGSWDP
# 3-phosphoinositide-dependent protein kinase 1 (PDPK1) (Homo sapiens), sequence (O15530 whole entry, looked up, the tested form may be a part): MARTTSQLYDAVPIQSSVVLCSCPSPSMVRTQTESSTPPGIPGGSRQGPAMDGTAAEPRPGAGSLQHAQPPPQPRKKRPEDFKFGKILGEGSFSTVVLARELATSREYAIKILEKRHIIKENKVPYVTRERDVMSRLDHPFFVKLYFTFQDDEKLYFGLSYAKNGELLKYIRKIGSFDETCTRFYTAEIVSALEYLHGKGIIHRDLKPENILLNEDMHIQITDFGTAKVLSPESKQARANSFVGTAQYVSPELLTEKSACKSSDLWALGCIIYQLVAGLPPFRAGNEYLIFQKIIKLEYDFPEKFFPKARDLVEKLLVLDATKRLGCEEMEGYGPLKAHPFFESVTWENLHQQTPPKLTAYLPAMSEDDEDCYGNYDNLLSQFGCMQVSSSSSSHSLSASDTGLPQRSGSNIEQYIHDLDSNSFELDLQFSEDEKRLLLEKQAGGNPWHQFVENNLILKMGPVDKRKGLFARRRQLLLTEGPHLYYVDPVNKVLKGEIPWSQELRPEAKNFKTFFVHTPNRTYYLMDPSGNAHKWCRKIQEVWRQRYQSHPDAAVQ
# Calcium/calmodulin-dependent protein kinase type IV (Homo sapiens), sequence (Q16566 whole entry, the tested form may be a part): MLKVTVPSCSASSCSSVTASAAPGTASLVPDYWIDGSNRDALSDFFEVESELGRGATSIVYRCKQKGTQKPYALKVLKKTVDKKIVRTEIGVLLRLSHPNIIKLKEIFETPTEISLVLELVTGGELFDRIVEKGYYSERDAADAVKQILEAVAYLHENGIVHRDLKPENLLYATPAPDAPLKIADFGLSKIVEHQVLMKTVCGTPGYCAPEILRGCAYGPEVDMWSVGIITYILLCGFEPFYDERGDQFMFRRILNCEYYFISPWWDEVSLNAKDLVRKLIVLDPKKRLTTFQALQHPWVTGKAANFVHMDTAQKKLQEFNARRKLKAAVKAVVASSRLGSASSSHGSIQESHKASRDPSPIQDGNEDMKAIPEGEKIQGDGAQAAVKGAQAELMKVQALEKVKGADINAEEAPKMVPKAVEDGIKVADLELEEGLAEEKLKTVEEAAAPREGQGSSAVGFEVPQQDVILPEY
# MAP kinase-activated protein kinase 5 (Homo sapiens), sequence (Q8IW41 whole entry, the tested form may be a part): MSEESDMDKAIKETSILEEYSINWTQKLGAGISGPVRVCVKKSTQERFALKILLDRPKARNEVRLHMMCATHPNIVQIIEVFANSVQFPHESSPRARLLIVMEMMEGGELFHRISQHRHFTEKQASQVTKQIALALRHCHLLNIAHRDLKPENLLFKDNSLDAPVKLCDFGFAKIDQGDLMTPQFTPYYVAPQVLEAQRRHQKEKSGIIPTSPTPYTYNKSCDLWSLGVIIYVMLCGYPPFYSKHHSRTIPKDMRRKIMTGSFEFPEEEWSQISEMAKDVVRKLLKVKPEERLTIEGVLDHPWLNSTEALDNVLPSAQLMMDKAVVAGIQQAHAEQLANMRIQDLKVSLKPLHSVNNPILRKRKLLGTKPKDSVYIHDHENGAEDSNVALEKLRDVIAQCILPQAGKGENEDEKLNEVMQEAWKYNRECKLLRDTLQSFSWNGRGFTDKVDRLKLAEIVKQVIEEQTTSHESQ
SMILES,inhibition [1] [%],inhibition [2] [%],inhibition [3] [%],inhibition [4] [%],inhibition [5] [%],inhibition [6] [%],inhibition [7] [%],inhibition [8] [%],inhibition [9] [%],inhibition [10] [%],inhibition [11] [%],inhibition [12] [%],inhibition [13] [%],inhibition [14] [%],inhibition [15] [%],inhibition [16] [%],inhibition [17] [%],inhibition [18] [%],inhibition [19] [%],inhibition [20] [%],other results
Cc1cc(C)c(CNC(=O)c2cc(Br)c3c(c2C)O[C@@](C)([C@H]2CC[C@H](N(C)C)CC2)O3)c(=O)[nH]1,2.7,-5.4,-4.6,-4.7,-3.6,-3.1,1.5,-0.6,-2.1,-3.4,-2.6,-2.9,-2.3,3,-1.1,2.3,-1.5,17,-3,-4.7,inhibition [21]: -2.5%; inhibition [22]: -2.5%
Cc1cc(C)c(CNC(=O)c2cc(Cl)c3c(c2C)O[C@@](C)([C@H]2CC[C@H](N(C)C)CC2)O3)c(=O)[nH]1 [VALEMETOSTAT],0.8,-5.9,-6.8,-6.9,-3.5,-5.7,1.4,0.6,-3.7,-4.9,-4.1,-7.2,-5.7,-3,-2.8,2.6,-1.9,16.4,2.9,0.5,inhibition [21]: -3.3%; inhibition [22]: -0.5%

# Reference: ChEMBL document CHEMBL5647694, “Novel orally bioavailable EZH1/2 dual inhibitors with greater antitumor efficacy than an EZH2 selective inhibitor” (Cancer Sci, 2017)
